{
  "source": "patent US4609758A",
  "about": "“Phenoxyethylamine derivatives” (American Home Products Corporation, priority 1985, dated 1986)",
  "key": {"[1]": {"test_system": "synaptosomal uptake of norepinephrine", "experiment": "Inhibition of synaptosomal norepinephrine (3H-NE) uptake", "assay_type": "biochemical", "conditions": "synaptosomal uptake of 3H-NE, read-out: NE uptake, inhibitory concentration at which the rate of uptake was reduced to 50 percent (IC50)"}, "[2]": {"target": "muscarinic receptor", "experiment": "Inhibition of 3H-QNB binding (QNB receptor binding assay)", "conditions": "for Ki / IC50: inhibition of 3H-QNB binding; for anticholinergic property reflected by inhibition of binding of the muscarinic receptor ligand 3H-QNB (in words): 3H-quinuclidinyl benzilate"}, "[3]": {"test_system": "synaptosomal uptake of serotonin (5-HT)", "experiment": "Inhibition of synaptosomal serotonin (14C-5-HT) uptake", "assay_type": "biochemical", "conditions": "synaptosomal uptake of 14C-5-HT, read-out: 5-HT uptake, inhibitory concentration at which the rate of uptake was reduced to 50 percent (IC50)"}},
  "data": [
    {"smiles": "CN(C)CCC=C1c2ccccc2CCc2ccccc21", "note": "[Amitriptyline, reference compound]", "values": [
      {"measurement": "IC50", "setting": "[1]", "result": "[…]"}
    ]},
    {"smiles": "CNCCCN1c2ccccc2CCc2ccccc21", "note": "[DMI, reference compound]", "values": [
      {"measurement": "IC50", "setting": "[1]", "result": 150, "unit": "nM"},
      {"measurement": "Ki", "setting": "[2]", "result": "[…]"}
    ]},
    {"smiles": "CN(C)CC(Oc1ccc(Cl)cc1)C1(O)CCCCC1", "note": "(centres unmarked) [Example 1, 1-[1-(4-Chlorophenoxy)-2-(dimethylamino)ethyl]cyclohexanol]", "values": [
      {"measurement": "IC50", "setting": "[1]", "result": 220, "unit": "nM"},
      {"measurement": "IC50", "setting": "[3]", "result": 170, "unit": "nM"},
      {"measurement": "anticholinergic property reflected by inhibition of binding of the muscarinic receptor ligand 3H-QNB (in words)", "setting": "[2]", "result": "essentially inactive"},
      {"measurement": "IC50", "setting": "[2]", "result": "> 10000", "unit": "nM"}
    ]},
    {"smiles": "CN(C)CC(Oc1ccc(Cl)cc1Cl)C1(O)CCCCC1", "note": "(centres unmarked) [Example 2, 1-[1-(2,4-Dichlorophenoxy)-2-(dimethylamino)ethyl]cyclohexanol]", "values": [
      {"measurement": "IC50", "setting": "[1]", "result": 3140, "unit": "nM"},
      {"measurement": "IC50", "setting": "[3]", "result": 530, "unit": "nM"},
      {"measurement": "anticholinergic property reflected by inhibition of binding of the muscarinic receptor ligand 3H-QNB (in words)", "setting": "[2]", "result": "essentially inactive"},
      {"measurement": "IC50", "setting": "[2]", "result": "> 10000", "unit": "nM"}
    ]},
    {"smiles": "CN(C)CC(Oc1ccc(Cl)cc1Cl)C1(O)CCCC1", "note": "(centres unmarked) [Example 3, 8-[1-(2,4-Dichlorophenoxy)-2-(dimethylamino)ethyl]cyclopentanol]", "values": [
      {"measurement": "IC50", "setting": "[1]", "result": 2250, "unit": "nM"},
      {"measurement": "IC50", "setting": "[3]", "result": 440, "unit": "nM"}
    ]},
    {"smiles": "COc1ccc(OC(CN(C)C)C2(O)CCCCC2)cc1", "note": "(centres unmarked) [Example 4, 1-[2-(Dimethylamino)-1-(4-methoxyphenoxy)ethyl]cyclohexanol]", "values": [
      {"measurement": "IC50", "setting": "[1]", "result": 920, "unit": "nM"},
      {"measurement": "IC50", "setting": "[3]", "result": 180, "unit": "nM"}
    ]},
    {"smiles": "COc1ccc(OC(CN(C)C)C2(O)CCCCCC2)cc1", "note": "(centres unmarked) [Example 5, 1-[2-(Dimethylamino)-1-(4-methoxyphenoxy)ethyl]cycloheptanol]", "values": [
      {"measurement": "IC50", "setting": "[1]", "result": 810, "unit": "nM"},
      {"measurement": "IC50", "setting": "[3]", "result": 170, "unit": "nM"}
    ]},
    {"smiles": "COc1ccc(OC(CN(C)C)C2(O)CCCC2)cc1", "note": "(centres unmarked) [Example 6, 1-[2-(dimethylamino)-1-(4-methoxyphenoxy)ethyl]cyclopentanol]", "values": [
      {"measurement": "IC50", "setting": "[1]", "result": 3140, "unit": "nM"},
      {"measurement": "IC50", "setting": "[3]", "result": 640, "unit": "nM"}
    ]},
    {"smiles": "CN(C)CC(Oc1cccc(C(F)(F)F)c1)C1(O)CCCCC1", "note": "(centres unmarked) [Example 7, 1-[2-(dimethylamino)-1-(3-trifluoromethylphenoxy)ethyl]cyclohexanol]", "values": [
      {"measurement": "IC50", "setting": "[1]", "result": 2350, "unit": "nM"},
      {"measurement": "IC50", "setting": "[3]", "result": 1200, "unit": "nM"}
    ]},
    {"smiles": "CN(C)CC(Oc1ccc(C(F)(F)F)cc1)C1(O)CCCCC1", "note": "(centres unmarked) [Example 8, 1-[2-Dimethylamino-1-(4-trifluoromethylphenoxy)ethyl]cyclohexanol]", "values": [
      {"measurement": "IC50", "setting": "[1]", "result": 2500, "unit": "nM"},
      {"measurement": "IC50", "setting": "[3]", "result": 340, "unit": "nM"}
    ]},
    {"smiles": "CN(C)CC(Oc1ccc(C(F)(F)F)cc1)C1(O)CCCCCC1", "note": "(centres unmarked) [Example 9, 1-[2-Dimethylamino-1-(4-trifluoromethylphenoxy)ethyl]cycloheptanol]", "values": [
      {"measurement": "IC50", "setting": "[1]", "result": 3780, "unit": "nM"},
      {"measurement": "IC50", "setting": "[3]", "result": 490, "unit": "nM"}
    ]},
    {"smiles": "COc1cccc(OC(CN(C)C)C2(O)CCCCC2)c1", "note": "(centres unmarked) [Example 10, 1-[2-(Dimethylamino)-1-(3-methoxyphenoxy)ethyl]cyclohexanol]", "values": [
      {"measurement": "IC50", "setting": "[1]", "result": 1160, "unit": "nM"},
      {"measurement": "IC50", "setting": "[3]", "result": 700, "unit": "nM"}
    ]},
    {"smiles": "COc1cccc(OC(CN(C)C)C2(O)CCCCCC2)c1", "note": "(centres unmarked) [Example 11, 1-[2-(Dimethylamino)-1-(3-methoxyphenoxy)ethyl]cycloheptanol]", "values": [
      {"measurement": "IC50", "setting": "[1]", "result": 1160, "unit": "nM"},
      {"measurement": "IC50", "setting": "[3]", "result": 900, "unit": "nM"}
    ]},
    {"smiles": "COc1cccc(OC(CN(C)C)C2(O)CCCC2)c1", "note": "(centres unmarked) [Example 12, 1-[2-(Dimethylamino)-1-(3-methoxyphenoxy)ethyl]cyclopentanol]", "values": [
      {"measurement": "IC50", "setting": "[1]", "result": 1580, "unit": "nM"},
      {"measurement": "IC50", "setting": "[3]", "result": 970, "unit": "nM"}
    ]},
    {"smiles": "CNCCC(Oc1ccc(C(F)(F)F)cc1)c1ccccc1", "note": "(centres unmarked) [Fluoxetine, reference compound]", "values": [
      {"measurement": "IC50", "setting": "[1]", "result": 4500, "unit": "nM"}
    ]},
    {"smiles": "CN(C)CCCN1c2ccccc2CCc2ccccc21", "note": "[Imipramine, reference compound]", "values": [
      {"measurement": "IC50", "setting": "[1]", "result": 260, "unit": "nM"},
      {"measurement": "IC50", "setting": "[3]", "result": 120, "unit": "nM"},
      {"measurement": "Ki", "setting": "[2]", "result": 37, "unit": "nM"}
    ]}
  ]
}
